Measured values reported in article PMC2673050 (Journal of medicinal chemistry, 2009).

Experiments:
[1] = test system: four different cell lines; test: Cytotoxicity, overall statement for four cell lines; format: cell-based
Cytotoxicity testing [2] = format: cell-based; conditions: human, LU lung cancer cells
Cytotoxicity testing [3] = format: cell-based; conditions: human, MCF7 breast cells
Human QR2 = target: T1, Human QR2 (Homo sapiens, UniProt P16083); test: QR2 inhibition assay; format: biochemical; conditions: for Increase in QR2 inhibitory potency relative to compound 1: relative to natural product 1
T1 sequence (P16083 1-231): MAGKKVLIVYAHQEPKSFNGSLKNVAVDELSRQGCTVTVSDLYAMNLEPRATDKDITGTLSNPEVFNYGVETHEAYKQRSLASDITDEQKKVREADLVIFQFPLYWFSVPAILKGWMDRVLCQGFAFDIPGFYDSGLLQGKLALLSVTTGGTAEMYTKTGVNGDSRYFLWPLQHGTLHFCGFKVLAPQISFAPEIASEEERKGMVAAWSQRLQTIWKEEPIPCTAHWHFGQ

aromatase (CYP19A1) = target: T2, aromatase (CYP19A1) (Homo sapiens, UniProt P11511); test: Aromatase inhibition assay; format: biochemical
T2 sequence (P11511 1-503): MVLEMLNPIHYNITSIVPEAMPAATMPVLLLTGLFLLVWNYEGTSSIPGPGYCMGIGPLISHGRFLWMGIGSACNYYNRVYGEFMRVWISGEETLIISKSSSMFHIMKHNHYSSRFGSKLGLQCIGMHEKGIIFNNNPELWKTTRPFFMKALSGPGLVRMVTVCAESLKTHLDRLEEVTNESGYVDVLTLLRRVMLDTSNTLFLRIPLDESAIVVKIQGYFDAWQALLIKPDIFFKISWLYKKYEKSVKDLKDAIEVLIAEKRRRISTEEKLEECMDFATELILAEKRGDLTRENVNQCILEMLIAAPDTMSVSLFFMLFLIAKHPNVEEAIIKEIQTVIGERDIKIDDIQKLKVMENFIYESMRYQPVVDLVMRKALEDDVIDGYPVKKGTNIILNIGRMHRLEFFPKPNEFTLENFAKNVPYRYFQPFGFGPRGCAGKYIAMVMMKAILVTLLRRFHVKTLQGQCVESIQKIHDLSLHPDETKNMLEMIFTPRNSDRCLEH

[4] = test system: Salmonella typhimurium strain TM677; conditions: S. typhimurium TM677; cited from earlier work
[5] = test system: mouse mammary gland organ culture (MMOC); conditions: cited from earlier work

Row | Compound | Aromatase inhibitory activity (in words) (aromatase (CYP19A1)) | IC50 at 72 h (Cytotoxicity testing [2]) [µM] | IC50 at 72 h (Cytotoxicity testing [3]) [µM] | other results
1 | Cc1cc(=O)n(C)c2c1C(=O)C=CC2=O [compound 12] | – | – | – | Cytotoxicity (in words) [1]: low degree of cytotoxicity
2 | COc1ccc2c(C)cc(=O)[nH]c2c1OC [1g, 7,8-Dimethoxy-4-methylquinolin-2(1H)-one] | – | > 91.3 | > 91.3 | –
3 | COc1c(OC)c(OC)c2c(C)cc(=O)[nH]c2c1OC [1q, 5,6,7,8-Tetramethoxy-4-methylquinolin-2(1H)-one] | – | > 71.7 | > 71.7 | QR2 inhibitory activity (in words) (Human QR2): completely inactive
4 | COc1ccc2c(C)cc(=O)n(C)c2c1OC [1h, 7,8-Dimethoxy-1,4-dimethylquinolin-2(1H)-one] | – | > 85.8 | > 85.8 | –
5 | Cc1cc(=O)n(C)c2c3c(ccc12)OCO3 [1b, 6,9-Dimethyl-[1,3]dioxolo[4,5-h]quinolin-8(9H)-one] | – | > 92.1 | > 92.1 | Increase in QR2 inhibitory potency relative to compound 1 (Human QR2): more than 8 fold
6 | COc1cc2c(C)cc(=O)[nH]c2c(OC)c1OC [1m, 6,7,8-Trimethoxy-4-methylquinolin-2(1H)-one] | – | > 80.3 | > 80.3 | –
7 | COc1ccc(OC)c2c(C)cc(=O)[nH]c12 [1k, 5,8-Dimethoxy-4-methylquinolin-2(1H)-one] | – | > 91.2 | > 91.2 | –
8 | Cc1cc(=O)[nH]c2ccccc12 [1c, 4-Methylquinolin-2(1H)-one] | inactive | > 126 | > 126 | QR2 inhibitory activity (in words) (Human QR2): inactive
9 | Cc1cc(=O)[nH]c2c3c(ccc12)OCO3 [1a, 6-Methyl-[1,3]dioxolo[4,5-h]quinolin-8(9H)-one] | – | > 98.5 | > 98.5 | –
10 | COc1cccc2c(C)cc(=O)n(C)c12 [1f, 8-Methoxy-1,4-dimethylquinolin-2(1H)-one] | – | > 98.5 | > 98.5 | Increase in QR2 inhibitory potency relative to compound 1 (Human QR2): approximately 10 fold
11 | COc1cc(=O)n(C)c2c3c(ccc12)OCO3 [compound 1, 6-Methoxy-9-methyl-[1,3]dioxolo[4,5-h]quinolin-8(9H)-one] | – | > 85.8 | > 85.8 | Inhibition of mutagenicity induced by 7,12-dimethylbenz[a]anthracene (DMBA) [4]: inhibit mutagenicity; Inhibition of formation of DMBA-induced preneoplastic lesions [5]: inhibition of the formation of DMBA-induced preneoplastic lesions
12 | Cc1cc(=O)n(C)c2ccccc12 [1d, 1,4-Dimethylquinolin-2(1H)-one] | inactive | > 116 | > 116 | Increase in QR2 inhibitory potency relative to compound 1 (Human QR2): approximately 3 fold
13 | COc1cc(OC)c2[nH]c(=O)cc(C)c2c1OC [1o, 5,6,8-Trimethoxy-4-methylquinolin-2(1H)-one] | – | – | – | Cytotoxicity (in words) [1]: low degree of cytotoxicity
14 | COc1cc2c(C)cc(=O)n(C)c2c(OC)c1OC [1n, 6,7,8-Trimethoxy-1,4-dimethylquinolin-2(1H)-one] | – | > 76 | > 76 | –
15 | COc1cc(OC)c2c(c(C)cc(=O)n2C)c1OC [1p, 5,6,8-Trimethoxy-1,4-dimethylquinolin-2(1H)-one] | – | – | > 76 | Cytotoxicity (in words) [1]: low degree of cytotoxicity

More lines, main results first:

Row | Aromatase inhibitory activity (in words) (aromatase (CYP19A1)) | Compound | IC50 at 72 h (Cytotoxicity testing [2]) [µM] | IC50 at 72 h (Cytotoxicity testing [3]) [µM] | other results
16 | submicromolar range | COc1c(OC)c(OC)c2c(c(C)cc(=O)n2C)c1OC [1r, 5,6,7,8-Tetramethoxy-1,4-dimethylquinolin-2(1H)-one] | > 68.2 | > 68.2 | QR2 inhibitory activity (in words) (Human QR2): completely inactive
17 | not active | COc1cccc2c(C)cc(=O)[nH]c12 [1e, 8-Methoxy-4-methylquinolin-2(1H)-one] | > 106 | > 106 | –
18 | submicromolar range | COc1cc(OC)c2c(c1)c(C)cc(=O)n2C [1j, 6,8-Dimethoxy-1,4-dimethylquinolin-2(1H)-one] | > 85.8 | > 85.8 | –
19 | submicromolar range | COc1ccc(OC)c2c1c(C)cc(=O)n2C [1l, 5,8-Dimethoxy-1,4-dimethylquinolin-2(1H)-one] | > 85.7 | > 85.7 | Increase in QR2 inhibitory potency relative to compound 1 (Human QR2): 10 fold
20 | inactive | COc1cc(OC)c2[nH]c(=O)cc(C)c2c1 [1i, 6,8-Dimethoxy-4-methylquinolin-2(1H)-one] | > 91.3 | > 91.3 | –
